The term MIC denotes the lowest concentration that inhibits growth of the organism. Low values mean greater potency, high ones weaker potency. In general, IC50 refers to the concentration at which inhibition is half-maximal. The low end stands for greater potency, the high end for weaker potency.

This is an account of results in ChEMBL document CHEMBL1139242, “Peptide deformylase inhibitors of Mycobacterium tuberculosis: synthesis, structural investigations, and biological results” (Bioorg Med Chem Lett, 2008).

The structures appear in SMILES notation. Values after ≈ are worked out from the molar mass of the structure shown.

The first assay has as its system Mycobacterium tuberculosis. As to the kind of experiment: Antitubercular activity against Mycobacterium tuberculosis H37Rv after 14 days by turbidimetric assay. The following applies: 336 h. The class given is functional.
In turn, `O=CN(O)C[C@@H](CC1CC1)C(=O)N1CCC[C@H]1c1nc2ccccc2o1` showed an MIC of 0.2 µg/mL (≈ 0.56 µM).

Take `COc1c(N2CCNC(C)C2)c(F)cc2c(=O)c(C(=O)O)cn(C3CC3)c12` (centres undefined) [GATIFLOXACIN]: it took 0.07 µg/mL (≈ 0.186 µM) to inhibit growth (MIC). This MIC lies about 2.9-fold lower than the previous one.

In the case of `O=CN(O)C[C@@H](CC1CC1)C(=O)N1CCC[C@H]1c1nc2ccccc2[nH]1`, inhibition of growth (MIC) required 0.05 µg/mL (≈ 0.14 µM).

`CCCC[C@H](CN(O)C=O)C(=O)N1CCC[C@H]1c1nc2ccccc2[nH]1`: 0.1 µg/mL (≈ 0.279 µM) was the least that counted as inhibitory (MIC).

In the case of `CCCC[C@H](CN(O)C=O)C(=O)N1CCC[C@H]1C(=O)Nc1ccccn1`, the minimal inhibitory concentration (MIC) is 0.2 µg/mL (≈ 0.552 µM). Against the preceding compound, the MIC is about 2-fold higher.

For `CCCC[C@H](CN(O)C=O)C(=O)N1CCC[C@H]1c1nc2ccccc2o1`, the MIC stood at 0.15 µg/mL (≈ 0.417 µM).

The target in a further assay is T1, Peptide deformylase (Mycobacterium tuberculosis, UniProt P9WIJ3).
T1 sequence (P9WIJ3 whole entry): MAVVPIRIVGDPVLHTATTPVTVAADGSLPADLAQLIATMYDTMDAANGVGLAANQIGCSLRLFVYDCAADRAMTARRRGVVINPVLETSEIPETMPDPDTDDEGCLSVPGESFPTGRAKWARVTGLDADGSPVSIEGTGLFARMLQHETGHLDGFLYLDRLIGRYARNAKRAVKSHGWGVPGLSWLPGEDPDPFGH
As to the kind of experiment: Inhibition of Mycobacterium tuberculosis peptide deformylase expressed in Escherichia coli M15(pREp4) by microplate assay.
Conditions: not given
`CCCCC[C@H](CN(O)C=O)C(=O)N1CCC[C@H]1c1nc2ccccc2o1`: it took 13 nM to reach half-maximal inhibition (IC50).

`CCCC[C@H](C(=O)NO)C(=O)N1CCC[C@H]1c1nc2ccccc2[nH]1` gave a half-maximal inhibitory concentration (IC50) of 18 nM.

In turn, `O=CN(O)C[C@@H](CC1CC1)C(=O)N1CCC[C@H]1c1nc2ccccc2o1` returned an IC50 of 21 nM.

`CCCC[C@H](C(=O)NO)C(=O)N1CCC[C@H]1c1nc2ccccc2o1` yielded a 50% inhibitory concentration (IC50) of 49 nM.

As to `CCC[C@H](CN(O)C=O)C(=O)N1CCC[C@H]1c1nc2ccccc2o1`, the concentration for half-maximal inhibition (IC50) is 28 nM. Against the preceding compound, the IC50 is about 1.8-fold lower.

As for `O=CN(O)C[C@@H](Cc1ccccc1)C(=O)N1CCC[C@H]1c1nc2ccccc2o1`, the half-maximal inhibitory concentration (IC50) was 161 nM. This IC50 is about 5.8-fold higher than that of the compound before.

As for `O=CN(O)C[C@@H](Cc1ccccc1)C(=O)N1CCC[C@H]1c1nc2ccccc2[nH]1`, inhibition was half-maximal at 68 nM (IC50).

The compound `O=CN(O)C[C@@H](CC1CC1)C(=O)N1CCC[C@H]1c1nc2ccccc2[nH]1` gave an IC50 of 8 nM.

`CCCC[C@H](CN(O)C=O)C(=O)N1CCC[C@H]1c1nc2ccccc2[nH]1` returned a half-inhibitory concentration (IC50) of 10 nM.

Take `CCCC[C@H](CC(=O)O)C(=O)N1CCC[C@H]1c1nc2ccccc2o1`: the midpoint of inhibition, the IC50, lay at 803 nM.

In turn, `CCC[C@H](CN(O)C=O)C(=O)N1CCC[C@H]1c1nc2ccccc2[nH]1` registered an IC50 of 24 nM.

Compound `CCCCC[C@H](CN(O)C=O)C(=O)N1CCC[C@H]1c1nc2ccccc2[nH]1` showed an IC50 of 15 nM.

For the compound `CCCC[C@H](CC(=O)O)C(=O)N1CCC[C@H]1c1nc2ccccc2[nH]1`, the IC50 is 202 nM. This IC50 lies about 13-fold higher than the previous one.
